Laboratory results from PubChem BioAssay AID1963832 (Molecular Pharmacology Branch, DTP, NCI, 2024).

System: 885724-159-R-J1-PDC complex spheroid viability
Assay: Anticancer human tumor 885724-159-R-J1-PDC patient-derived pancreatic adenocarcinoma cell line growth inhibition [POLQ]
Conditions: for IC50: curve of first compound; for viability, T/C: stronger effect = lower value
Method in brief: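 Three-cell-type spheroids modelling solid tumor plus stroma served as the readout system; POL inhibitors were tested individually and in combination, concentration ranges set by clinical Cmax where known.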

[1] = second compound 0.0316 µM, first compound 0.0316 µM
[2] = second compound 0.0316 µM, first compound 0.1 µM
[3] = second compound 0.0316 µM, first compound 0.316 µM
[4] = second compound 0.0316 µM, first compound 1 µM
[5] = second compound 0.0316 µM, first compound 3.16 µM
[6] = second compound 0.0316 µM, first compound 10 µM
[7] = second compound 0.1 µM, first compound 0.0316 µM
[8] = second compound 0.1 µM, first compound 0.1 µM
[9] = second compound 0.1 µM, first compound 0.316 µM
[10] = second compound 0.1 µM, first compound 1 µM
[11] = second compound 0.1 µM, first compound 3.16 µM
[12] = second compound 0.1 µM, first compound 10 µM
[13] = second compound 0.316 µM, first compound 0.0316 µM
[14] = second compound 0.316 µM, first compound 0.1 µM
[15] = second compound 0.316 µM, first compound 0.316 µM
[16] = second compound 0.316 µM, first compound 1 µM
[17] = second compound 0.316 µM, first compound 3.16 µM
[18] = second compound 0.316 µM, first compound 10 µM
[19] = second compound 1 µM, first compound 0.0316 µM
[20] = second compound 1 µM, first compound 0.1 µM
[21] = second compound 1 µM, first compound 0.316 µM
[22] = second compound 1 µM, first compound 1 µM
[23] = second compound 1 µM, first compound 3.16 µM
[24] = second compound 1 µM, first compound 10 µM
[25] = second compound 3.16 µM, first compound 0.0316 µM
[26] = second compound 3.16 µM, first compound 0.1 µM
[27] = second compound 3.16 µM, first compound 0.316 µM
[28] = second compound 3.16 µM, first compound 1 µM
[29] = second compound 3.16 µM, first compound 3.16 µM
[30] = second compound 3.16 µM, first compound 10 µM
[31] = second compound 10 µM, first compound 0.0316 µM
[32] = second compound 10 µM, first compound 0.1 µM
[33] = second compound 10 µM, first compound 0.316 µM
[34] = second compound 10 µM, first compound 1 µM
[35] = second compound 10 µM, first compound 3.16 µM
[36] = second compound 10 µM, first compound 10 µM
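Note: spheroids exposed to compounds for 7 days.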

`COc1cc(C2c3cc4c(cc3C(OC3OC5COC(C)OC5C(O)C3O)C3COC(=O)C23)OCO4)cc(OC)c1O` (stereo unspecified) + Nc1ccc(C#CCN(C(=O)Cc2ncc(C(F)(F)F)cc2C(F)(F)F)c2ccc(F)cc2)nn1 showed an IC50 (second compound 0.0316 µM) greater than 10 µM, an IC50 (second compound 0.1 µM) greater than 10 µM and an IC50 (second compound 0.316 µM) greater than 10 µM. It also gave an IC50 (second compound 1 µM) greater than 10 µM, an IC50 (second compound 3.16 µM) greater than 10 µM and an IC50 (second compound 10 µM) greater than 10 µM. It also gave a viability, T/C [1] of 107%, a viability, T/C [2] of 86.6% and a viability, T/C [3] of 87.4%. For the same compound, the viability, T/C [4] was 71%, the viability, T/C [5] was 57.8% and the viability, T/C [6] was 55%. The viability, T/C [7] was 104%, the viability, T/C [8] was 89.4% and the viability, T/C [9] was 82.2%. The viability, T/C [10] was 69.4%, the viability, T/C [11] was 61.1% and the viability, T/C [12] was 53.2%. It also gave a viability, T/C [13] of 103%, a viability, T/C [14] of 87.2% and a viability, T/C [15] of 76.1%. The viability, T/C [16] was 66.3%, the viability, T/C [17] was 58.2% and the viability, T/C [18] was 50.6%. The viability, T/C [19] was 89.7%, the viability, T/C [20] was 85.7% and the viability, T/C [21] was 76.9%. The viability, T/C [22] was 69.6%, the viability, T/C [23] was 53.9% and the viability, T/C [24] was 53.5%. The viability, T/C [25] was 87.8%, the viability, T/C [26] was 87.9% and the viability, T/C [27] was 82.6%. For the same compound, the viability, T/C [28] was 81%, the viability, T/C [29] was 56.1% and the viability, T/C [30] was 50.9%. It also gave a viability, T/C [31] of 95.1%, a viability, T/C [32] of 94.3% and a viability, T/C [33] of 82.4%. The viability, T/C [34] was 74.1%, the viability, T/C [35] was 62.8% and the viability, T/C [36] was 52.4%.
`COc1cccc(OCCCN)c1-c1cc(Nc2cnc(C#N)cn2)n[nH]1` + Nc1ccc(C#CCN(C(=O)Cc2ncc(C(F)(F)F)cc2C(F)(F)F)c2ccc(F)cc2)nn1 showed an IC50 (second compound 0.0316 µM) of 0.0153 µM, an IC50 (second compound 0.1 µM) of 0.0138 µM and an IC50 (second compound 0.316 µM) of 0.0142 µM. For the same compound, the IC50 (second compound 1 µM) was 0.0155 µM, the IC50 (second compound 3.16 µM) was 0.0182 µM and the IC50 (second compound 10 µM) was greater than 1 µM. It also gave a viability, T/C (second compound 0.0316 µM, first compound 0.00316 µM) of 79%, a viability, T/C (second compound 0.0316 µM, first compound 0.01 µM) of 52% and a viability, T/C [1] of 46.1%. For the same compound, the viability, T/C [2] was 46%, the viability, T/C [3] was 45.7% and the viability, T/C [4] was 47.7%. For the same compound, the viability, T/C (second compound 0.1 µM, first compound 0.00316 µM) was 74%, the viability, T/C (second compound 0.1 µM, first compound 0.01 µM) was 53% and the viability, T/C [7] was 43.2%. For the same compound, the viability, T/C [8] was 43.3%, the viability, T/C [9] was 43.3% and the viability, T/C [10] was 48.1%. For the same compound, the viability, T/C (second compound 0.316 µM, first compound 0.00316 µM) was 77.3%, the viability, T/C (second compound 0.316 µM, first compound 0.01 µM) was 51.5% and the viability, T/C [13] was 47.3%. For the same compound, the viability, T/C [14] was 42.9%, the viability, T/C [15] was 43% and the viability, T/C [16] was 48.6%. It also gave a viability, T/C (second compound 1 µM, first compound 0.00316 µM) of 73.7%, a viability, T/C (second compound 1 µM, first compound 0.01 µM) of 51.1% and a viability, T/C [19] of 50.1%. The viability, T/C [20] was 41.3%, the viability, T/C [21] was 41% and the viability, T/C [22] was 46.7%. For the same compound, the viability, T/C (second compound 3.16 µM, first compound 0.00316 µM) was 68.4%, the viability, T/C (second compound 3.16 µM, first compound 0.01 µM) was 52.3% and the viability, T/C [25] was 46.6%. The viability, T/C [26] was 44%, the viability, T/C [27] was 53.6% and the viability, T/C [28] was 48.1%. The viability, T/C (second compound 10 µM, first compound 0.00316 µM) was 72.3%, the viability, T/C (second compound 10 µM, first compound 0.01 µM) was 57.5% and the viability, T/C [31] was 46.1%. It also gave a viability, T/C [32] of 49.7%, a viability, T/C [33] of 53.2% and a viability, T/C [34] of 51.2%.
For `O=c1[nH]cc(F)c(=O)[nH]1` + Nc1ccc(C#CCN(C(=O)Cc2ncc(C(F)(F)F)cc2C(F)(F)F)c2ccc(F)cc2)nn1, the IC50 (second compound 0.0316 µM) was greater than 10 µM, the IC50 (second compound 0.1 µM) was greater than 10 µM and the IC50 (second compound 0.316 µM) was greater than 10 µM. For the same compound, the IC50 (second compound 1 µM) was greater than 10 µM, the IC50 (second compound 3.16 µM) was greater than 10 µM and the IC50 (second compound 10 µM) was greater than 10 µM. For the same compound, the viability, T/C [1] was 88.7%, the viability, T/C [2] was 99.5% and the viability, T/C [3] was 93.2%. For the same compound, the viability, T/C [4] was 101%, the viability, T/C [5] was 100% and the viability, T/C [6] was 75.2%. For the same compound, the viability, T/C [7] was 94%, the viability, T/C [8] was 100% and the viability, T/C [9] was 92.1%. The viability, T/C [10] was 96%, the viability, T/C [11] was 87% and the viability, T/C [12] was 74.9%. The viability, T/C [13] was 100%, the viability, T/C [14] was 98.2% and the viability, T/C [15] was 92.2%. The viability, T/C [16] was 90.9%, the viability, T/C [17] was 89.4% and the viability, T/C [18] was 82.7%. The viability, T/C [19] was 96.9%, the viability, T/C [20] was 88.8% and the viability, T/C [21] was 96%. It also gave a viability, T/C [22] of 93.2%, a viability, T/C [23] of 81.3% and a viability, T/C [24] of 71.7%. For the same compound, the viability, T/C [25] was 97.1%, the viability, T/C [26] was 86.4% and the viability, T/C [27] was 86.9%. The viability, T/C [28] was 92.8%, the viability, T/C [29] was 97.5% and the viability, T/C [30] was 71.6%. It also gave a viability, T/C [31] of 105%, a viability, T/C [32] of 109% and a viability, T/C [33] of 94%. It also gave a viability, T/C [34] of 86.5%, a viability, T/C [35] of 92.8% and a viability, T/C [36] of 81.9%.
